In US20260126382A1, “INTELLIGENT NIR II PHOTOTHERMAL AND COLORIMETRIC SENSING TECHNOLOGY” (Nanyang Technological University, priority 2022, published 2026):

Legend:
myrosinase (Myr) [1] = test: Effect of interfering substances (metal ions, small molecules, amino acids, EDTA) on the Myr test system; format: biochemical; conditions: interfering substances 1 mM, FIG. 17C
Experimental: (§1) For Myr detection, Sin (2.5 mM, 30 μL) and GOx (5 mg/mL, 10 μL, according to previous literature (Jiang, C. et al., RSC Adv. 2017, 7, 44463-44469)) were mixed with different concentrations of Myr first, and reacted at 37° C. for 30 min to generate H2O2. Then, an acetate buffer containing TMB and AuNPs was added into the aforementioned solution, incubated at 45° C. for 25 min, and cooled to room temperature. Afterward, the solution was used for the analysis of Myr enzyme activity.
For the anti-interference experiments discussed below, Sin (2.5 mM, 30 μL) and GOx (5 mg/mL, 10 μL) were mixed with different interfering substances first and reacted at 37° C. for 30 min. Then, acetate buffer containing TMB and AuNPs were added into the above solution, incubated at 45° C. for 25 min, and cooled to room temperature, and afterwards, the solution was used for photothermal and colorimetric analysis.

[2] = Peroxidase-like (POD-like) activity in the TMB+H2O2 system, Abs1064 nm; format: biochemical; conditions: TMB+H2O2 system with HRP, FIG. 11
[3] = natural enzyme, from literature; cited from earlier work
myrosinase (Myr) [4] = test: Effect of Sin concentration on the Sin+Myr+GOx+TMB+AuNPs system; format: biochemical; conditions: Myr 0.5 mg/mL, GOx 0.5 mg/mL, TMB 1.5 mM, AuNPs 0.45 nM
Experimental: as §1
Before testing different Myr concentrations, it is necessary to determine the maximum Sin concentration that can be applied. FIG. 16 illustrates that when the concentration of Sin exceeds 0.75 mM, the working efficiency decreases and the blue color becomes faint because excess Sin binds to the active regulatory sites of Myr, thereby inhibiting the activity of Myr to hydrolyze Sin. As a result, 0.75 mM was selected as the maximum Sin concentration for detecting commercial Myr at varying concentrations and constructing a standard curve. As shown in FIGS. 17A-B and 18, when Sin was present at a concentration of 0.75 mM, Myr was detectable in the range of 0-345 mU/mL, and its linear detection range in the absorption spectrum was 0 to 172.5 mU/mL with an LOD of 2.96 mU/mL.

| Compound | inhibitory effect on Myr activity (myrosinase (Myr) [1]) | also measured |
| --- | --- | --- |
| O=C1O[C@H]([C@@H](O)CO)C(O)=C1O [Vc, Vitamin C] | inhibit Myr activity |  |
| horseradish peroxidase [HRP] |  | slope of Abs1064 nm vs. c(HRP) [2]: 0.04644 nM⁻¹; temperature beyond which activity is lost [3]: exceeds 50 °C |
| N[C@@H](CCC(=O)N[C@@H](CS)C(=O)NCC(=O)O)C(=O)O [GSH] | inhibit Myr activity |  |
| C=CC/C(=N/OS(=O)(=O)[O-])S[C@@H]1OC(CO)[C@@H](O)C(O)C1O.[K+] (stereo partly shown) [Sin, Sinigrin] |  | Sin concentration above which working efficiency decreases (excess Sin inhibiting the activity of Myr) (myrosinase (Myr) [4]): exceeds 0.75 mM |

Now from value to compound, other results behind:

| inhibitory effect on Myr activity (myrosinase (Myr) [1]) | Compound | also measured |
| --- | --- | --- |
| inhibit Myr activity | N[C@@H](CS)C(=O)O [Cys] |  |
| strongest inhibitory effect | [Cu+2] [Cu^2+] |  |
